# Values of other authors as cited in US20250367333A1, “LIPID NANOPARTICLE FOR RADIATION THERAPY, MANUFACTURING METHOD, COMBINATION COMPOSITION, AND KIT” (KABUSHIKI KAISHA TOSHIBA, priority 2024, published 2025).
# Conditions: radioactive material
smiles,measurement,value
[At] [astatine],half-life,approximately 7 hours
